# US7507727B2, “Substituted quinobenzoxazine analogs and methods of using thereof” (Cylene Pharmaceuticals, Inc., priority 2003, dated 2009)
# Molecular target: c-Myc template DNA (c-myc quadruplex)
# Test: Quadruplex binding / stop assay (Taq polymerase arrest, capillary electrophoresis)
# Conditions: read-out: S DATA; Table 1D, stop assay data
row,Structure (SMILES),IC50
1,CC(C)(C)OC(=O)NC1CCN(C(=O)c2cn3c4c(c(NCCN5CCOCC5)c(F)cc4c2=O)Oc2ccccc2-3)C1 (centres unmarked) [compound 1607],> 15 µM
2,CC1(C)CC(NC(=O)c2cn3c4c(c(N5CCC(N)C5)c(F)cc4c2=O)Oc2ccccc2-3)CC(C)(C)N1 (centres unmarked) [compound 1626],> 15 µM
3,CCCCOCCCNC(=O)c1cn2c3c(c(N4CCC(N)C4)c(F)cc3c1=O)Oc1cc3ccccc3cc1-2 (centres unmarked) [compound 1692],> 15 µM
4,CCOC(=O)c1cn2c3c(c(N4CCN(C(C)=O)CC4)c(F)cc3c1=O)Oc1cc(Cl)ccc1-2 [compound 1806],> 15 µM
5,O=C(NCCN1CCCC1)c1cn2c3c(c(N4CCN(c5ncccn5)CC4)c(F)cc3c1=O)Oc1cc(Cl)ccc1-2 [compound 1813],5.1 µM
6,CC(CNC(=O)c1cn2c3c(c(N4CCC(N)C4)c(F)cc3c1=O)Oc1cc3ccccc3cc1-2)c1ccccc1 (centres unmarked) [compound 1695],> 15 µM
7,CN(C)CC(C)(C)CNC(=O)c1cn2c3c(c(NCCCN4CCN(C)CC4)c(F)cc3c1=O)Oc1ccccc1-2 [compound 1580],> 15 µM
8,CN(C)CCCCNC(=O)c1cn2c3c(c(NCCN4CCCC4)c(F)cc3c1=O)Oc1ccccc1-2 [compound 1598],> 15 µM
9,CCN(CC)CCCC(C)NC(=O)c1cn2c3c(c(N4CCC(c5cnccn5)C4)c(F)cc3c1=O)Oc1cc3ccccc3cc1-2 (centres unmarked) [compound 1719],3 µM
10,CN(C)CC(C)(C)CNC(=O)c1cn2c3c(c(N4CCC(N)C4)c(F)cc3c1=O)Oc1ccccc1-2 (centres unmarked) [compound 1625],> 15 µM
11,CC(C)N1CCN(c2c(F)cc3c(=O)c(C(=O)N4CCC(N)C4)cn4c3c2Oc2ccccc2-4)CC1 (centres unmarked) [compound 1627],> 15 µM
12,C[C@@H](O)CNC(=O)c1cn2c3c(c(N4CCC(N)C4)c(F)cc3c1=O)Oc1cc3ccccc3cc1-2 (some centres unmarked) [compound 1708],> 15 µM
13,CCN(CC)CCCC(C)NC(=O)c1cn2c3c(c(NCCc4ccc(OC)c(OC)c4)c(F)cc3c1=O)Oc1cc3ccccc3cc1-2 (centres unmarked) [compound 1758],9.4 µM
14,CN1CCN(CCCNc2c(F)cc3c(=O)c(C(=O)NCCCCNC(=N)N)cn4c3c2Oc2ccccc2-4)CC1 [compound 1631],> 15 µM

# More lines, now with the values ahead:
row,IC50,Structure (SMILES)
1,1.75 µM,CN1CCCC1CCNC(=O)c1cn2c3c(c(NC(=O)C4CCCNC4)c(F)cc3c1=O)Oc1cc3ccccc3cc1-2 (centres unmarked) [compound 1480]
2,> 15 µM,CN(C)CCCCNC(=O)c1cn2c3c(c(NCCN4CCOCC4)c(F)cc3c1=O)Oc1ccccc1-2 [compound 1610]
3,1.75 µM,O=C(NCCN1CCOCC1)c1cn2c3c(c(NCCN4CCCC4)ccc3c1=O)Oc1cc3ccccc3cc1-2 [compound 1521]
4,> 15 µM,COC(=O)N[C@H]1CCN(c2c(F)cc3c(=O)c(C(=O)NCCC4CCCN4C)cn4c3c2Oc2cc3ccccc3cc2-4)C1 (some centres unmarked) [compound 1515]
5,1.75 µM,CN1CCN(CCCNc2ccc3c(=O)c(C(=O)NCCN4CCOCC4)cn4c3c2Oc2cc3ccccc3cc2-4)CC1 [compound 1556]
6,1.75 µM,CCCCN1CCC(CNC(=O)c2cn3c4c(c(N5CCC(N)C5)c(F)cc4c2=O)Oc2cc4ccccc4cc2-3)CC1 (centres unmarked) [compound 1718]
7,0.75 µM,CN1CCCC1CCNc1ccc2c(=O)c(C(=O)NCCN3CCCC3)cn3c2c1Oc1cc2ccccc2cc1-3 (centres unmarked) [compound 1522]
8,1.75 µM,CN1CCCC1CCNC(=O)c1cn2c3c(c(NCC(O)CO)c(F)cc3c1=O)Oc1cc3ccccc3cc1-2 (centres unmarked) [compound 1677]
9,7.8 µM,CN1CCCC1CCNC(=O)c1cn2c3c(c(N4CCN(c5ncccn5)CC4)c(F)cc3c1=O)Oc1cc(Cl)ccc1-2 (centres unmarked) [compound 1810]
10,> 15 µM,CN(C)CC(C)(C)CNC(=O)c1cn2c3c(c(NCCN4CCOCC4)c(F)cc3c1=O)Oc1ccccc1-2 [compound 1612]
11,> 15 µM,NC1CCN(c2c(F)cc3c(=O)c(C(=O)NCCCN4CCOCC4)cn4c3c2Oc2ccccc2-4)C1 (centres unmarked) [compound 1619]
12,0.75 µM,CN(C)CCCNc1c(F)cc2c(=O)c(C(=O)NCCC3CCCN3C)cn3c2c1Oc1cc2ccccc2cc1-3 (centres unmarked) [compound 1500]
13,1 µM,N=C(N)NCC1CCCC(CNC(=O)c2cn3c4c(c(NCCCN5CCOCC5)c(F)cc4c2=O)Oc2cc4ccccc4cc2-3)C1 (centres unmarked) [compound 1651]
14,> 15 µM,CN1CCCC1CCNC(=O)c1cn2c3c(c(NCCN4CCOCC4)ccc3c1=O)Oc1cc3ccccc3cc1-2 (centres unmarked) [compound 1547]
15,> 15 µM,O=C(NCCN1CCCC1)c1cn2c3c(c(NCCN4CCOCC4)c(F)cc3c1=O)Oc1ccccc1-2 [compound 1609]
16,0.75 µM,CN1CCCC1CCNC(=O)c1cn2c3c(c(NCCCCN4CCCC4)c(F)cc3c1=O)Oc1cc3ccccc3cc1-2 (centres unmarked) [compound 1504]
17,> 15 µM,CN(C)CCCCNC(=O)c1cn2c3c(c(NCCCN4CCOCC4)ccc3c1=O)Oc1cc3ccccc3cc1-2 [compound 1532]
18,0.75 µM,CCN(CC)CCCC(C)Nc1c(F)cc2c(=O)c(C(=O)NCCC3CCCN3C)cn3c2c1Oc1cc2ccccc2cc1-3 (centres unmarked) [compound 1499]
19,> 15 µM,O=C(NCCCN1CCOCC1)c1cn2c3c(c(NCCN4CCOCC4)c(F)cc3c1=O)Oc1ccccc1-2 [compound 1604]
20,1.75 µM,CN1CCC(N(C)c2c(F)cc3c(=O)c(C(=O)NCCC4CCCN4C)cn4c3c2Oc2cc3ccccc3cc2-4)CC1 (centres unmarked) [compound 1486]
21,3 µM,O=C(NCCN1CCCC1)c1cn2c3c(c(NCC4CCCO4)c(F)cc3c1=O)Oc1cc3ccccc3cc1-2 (centres unmarked) [compound 1734]

# Same assay, conditions: read-out: Stop Data c-Myc μM; concentration at which 50% of the DNA was arrested (arrested:full-length 1:1)
row,Structure (SMILES),IC50
1,O=C(NCCN1CCCC1)c1cn2c3cc4oc5cc([N+](=O)[O-])ccc5[nH]c4cc3oc3c(NCCCN4CCOCC4)c(F)cc(c1=O)c32 [compound 554],0.375 µM
2,CN1CCN(CCCNCCC(=O)N[C@@H]2CCN(c3c(F)cc4c(=O)c(C(=O)NCCN5CCCC5)cn5c4c3Oc3cc4c(cc3-5)oc3ccccc34)C2)CC1 [compound 403],0.75 µM
3,Nc1ccc2[nH]c3cc4oc5c(N6CC[C@H](N)C6)c(F)cc6c(=O)c(C(=O)O)cn(c4cc3oc2c1)c56 [compound 11],1.75 µM
4,CN(C)CCCCNC(=O)c1cn2c3cc4oc5cc([N+](=O)[O-])ccc5[nH]c4cc3oc3c(NCCCCN(C)C)c(F)cc(c1=O)c32 [compound 587],0.18 µM
5,NC1CCN(c2c(F)cc3c(=O)c(C(=O)NN4CCCCC4)cn4c3c2Oc2cc3ccccc3cc2-4)C1 (centres unmarked) [compound 244],1.75 µM
6,Nc1c(F)c(N2CCC(N)C2)c2c3c1c(=O)c(C(=O)N1CCC(N)C1)cn3-c1cc3ccccc3cc1O2 (centres unmarked) [compound 236],1.75 µM
7,CN(C)CCCCNc1c(F)cc2c(=O)c(C(=O)N3CCC(N)C3)cn3c4cc5c(=O)c6ccccc6c(=O)c5cc4oc1c23 (centres unmarked) [compound 96],2.5 µM
8,CC1(C)CC(NC(=O)c2cn3c4c(c(N5CCC(N)C5)ccc4c2=O)Oc2cc4ccccc4cc2-3)CC(C)(C)N1 (centres unmarked) [compound 558],0.375 µM
9,CN1CCCC1CCNc1c(F)cc2c(=O)c(C(=O)O)cn3c4cc5oc6cc(N)ccc6[nH]c5cc4oc1c23 (centres unmarked) [compound 20],0.75 µM
10,CN(C)CCC(=O)N[C@@H]1CCN(c2c(F)cc3c(=O)c(C(=O)NCCCN4CCN(C)CC4)cn4c3c2Oc2cc3c(cc2-4)oc2ccccc23)C1 [compound 175],1.75 µM
11,NC1CCN(c2c(F)cc3c(=O)c(C(=O)NCC(O)CO)cn4c3c2Oc2cc3ccccc3cc2-4)C1 (centres unmarked) [compound 300],1.75 µM
12,CN1CCN(CCCNc2c(F)cc3c(=O)c(C(=O)O)cn4c5cc6oc7cc(N)ccc7[nH]c6cc5oc2c34)CC1 [compound 22],0.75 µM
13,O=C(Nc1ccncc1)c1cn2c3c(c(NCCCN4CCOCC4)c(F)cc3c1=O)Oc1cc3c(cc1-2)oc1ccccc13 [compound 315],1 µM
14,Cc1ncn(C(=O)c2cn3c4c(c(N5CCC(N)C5)c(F)cc4c2=O)Oc2cc4ccccc4cc2-3)c1CO (centres unmarked) [compound 199],1.75 µM
15,N[C@H]1CCN(C(=O)c2cn3c4cc5c(cc4oc4c(NCCN6CCCC6)c(F)cc(c2=O)c43)c(=O)c2ccccc25)C1 [compound 214],1.75 µM
16,Cc1ncn(C(=O)c2cn3c4c(c(N5CCC(NC(=O)OC(C)(C)C)C5)c(F)cc4c2=O)Oc2cc4ccccc4cc2-3)c1CO (centres unmarked) [compound 187],1.75 µM

# The next lines start with the values.
row,IC50,Structure (SMILES)
1,1.75 µM,CN1CCN(CCCNc2ccc3c(=O)c(C(=O)NCCCN4CCOCC4)cn4c3c2Oc2cc3ccccc3cc2-4)CC1 [compound 278]
2,0.75 µM,CNC1CCN(c2c(F)cc3c(=O)c(C(=O)NCCC4CCCN4C)cn4c3c2Oc2cc3ccccc3cc2-4)C1 (centres unmarked) [compound 430]
3,1.75 µM,CN1CCC(N(C)c2c(F)cc3c(=O)c(C(=O)NCCC4CCCN4C)cn4c3c2Oc2cc3ccccc3cc2-4)CC1 (centres unmarked) [compound 257]
4,1.75 µM,NC1CCN(c2c(F)cc3c(=O)c(C(=O)NCc4ccccc4N4CCOCC4)cn4c3c2Oc2cc3ccccc3cc2-4)C1 (centres unmarked) [compound 248]
5,1.75 µM,Nc1c(F)c(N2CCC(N)C2)c2c3c1c(=O)c(C(=O)NCCCN1CCOCC1)cn3-c1cc3ccccc3cc1O2 (centres unmarked) [compound 235]
6,1.75 µM,CN1CCCC1CCNC(=O)c1cn2c3c(c(N4CCC(NC(=O)OC(C)(C)C)C4)c(F)c(N)c3c1=O)Oc1cc3ccccc3cc1-2 (centres unmarked) [compound 225]
7,1 µM,CN(C)CCCCNc1ccc2c(=O)c(C(=O)NCCN3CCCC3)cn3c2c1Oc1cc2ccccc2cc1-3 [compound 326]
8,1.75 µM,CC1CCCC(C)N1CCCNc1c(F)cc2c(=O)c(C(=O)NCCC3CCCN3C)cn3c2c1Oc1cc2ccccc2cc1-3 (centres unmarked) [compound 296]
9,1.75 µM,CC(C)(C)OC(=O)NC1CCN(c2c(F)c(N)c3c(=O)c(C(=O)NCCCN4CCOCC4)cn4c3c2Oc2cc3ccccc3cc2-4)C1 (centres unmarked) [compound 226]
10,1.05 µM,CCN(CC)CCNc1c(F)cc2c(=O)c(C(=O)N3CCOCC3)cn3c2c1Oc1cc2ccccc2cc1-3 [compound 305]
11,0.58 µM,CN1CCCC1CCNc1c(F)cc2c(=O)c(C(=O)NCCCN3CCOCC3)cn3c2c1Oc1c-3ccc2ccccc12 (centres unmarked) [compound 476]
12,2.5 µM,CN1CCCC1CCNc1c(F)cc2c(=O)c(C(=O)NCCN3CCCC3)cn3c2c1Oc1cc2c(cc1-3)oc1ccccc12 (centres unmarked) [compound 87]
13,2.5 µM,CN1CCN(CCCNC(=O)c2cn3c4c(c(NCCCN5CCOCC5)c(F)cc4c2=O)Oc2cc4ccccc4cc2-3)CC1 [compound 49]
14,1.75 µM,COc1cccc(CCNc2c(F)cc3c(=O)c(C(=O)NCCC4CCCN4C)cn4c3c2Oc2cc3ccccc3cc2-4)c1 (centres unmarked) [compound 289]
